Tests used:
[1] = system: IκB; test: Phosphorylated IκB immunoblot of cytoplasmic extract; type: cell-based, rat; conditions: LPS/IFNγ
Method: For iNOS protein, the cells were washed with cold Tris buffered saline (TBS; 20 mM Trizma base, and 137 mM NaCl, pH 7.5), lysed in 1×SDS sample loading buffer (62.5 mM Trizma base, 2% w/v SDS, 10% glycerol), following sonication and centrifugation at 15,000×g for 5 min, the supernatant was used for the iNOS western immunoblot assay. The protein concentration of samples was determined with the detergent compatible protein assay reagent (Bio-Rad Laboratories, CA) using bovine serum albumin (BSA) as the standard. Sample was boiled for 3 min with 0.1 volumes of 10% β-mercaptoethanol and 0.5% bromophenol blue mix. Fifty μg of total cellular protein was resolved by electrophoresis on 8 or 12% polyacrylamide gels, electro-transferred to polyvinylidene difluoride (PVDF) filter and blocked with Tween 20 containing Tris-buffered saline (TBST; 10 mM Trizma base-pH 7.4, 1% Tween 20, and 150 mM NaCl) with 5% skim milk. […] The membranes were detected by autoradiography using ECL-plus (Amersham Pharmacia Biotech) after washing with TBST buffer.

[2] = system: rat primary astrocytes; test: BrdU incorporation assay, proliferation of primary astrocytes; type: cell-based; conditions: for TNFα-induced astrocyte proliferation: pretreated 0.5 h (AS: 48 h after transfection), TNFα 1 ng/ml 18 h
Method: (§1) Primary astrocyte-enriched cultures were prepared from the whole cortex of one day old Sprague-Dawley rats as described earlier (Pahan et al., 1998b). Briefly, the cortex was rapidly dissected in ice-cold calcium/magnesium free Hanks Balanced Salt Solution (HBSS) (Gibco, Grand Island, N.Y.) at pH 7.4 as described previously (Won et al., 2001). The tissue was then minced, incubated in HBSS containing trypsin (2 mg/ml) for 20 min and washed twice in plating medium containing 10% FBS and 10 μg/ml gentamicin, and then disrupted by triturating through a Pasteur pipette following which cells were seeded in 75-cm^2 culture flasks (Falcon, Franklin, N.J.). After incubation at 37° C. in 5% CO2 for 1 day, the medium was completely changed to the culture medium (DMEM containing 5% FBS and 10 μg/ml gentamicin). The cultures received half exchanges with fresh medium twice a week. After 14-15 days the cells were shaken for at least 24 h on an orbital shaker to remove the microglia and then seeded on multi-well tissue culture dishes. The cells were incubated with serum-free DMEM for 24 h prior to the incubation with drugs.
Proliferation of primary astrocytes was assayed by using the Cell proliferation ELISA, BrdU colorimetric assay kit (Roche, Germany) according to manufacturer's protocol. Briefly, cells were seeded in 96 well plates in quadruplicate and following overnight serum starvation were stimulated with mitogenic stimulants. 2 h before termination of proliferation assay, BrdU (10 μM) was added to each well following which cells were fixed and levels of incorporated BrdU were assayed by using a conjugated anti-BrdU enzyme. Colorimetric analysis was done by measuring absorbance at 370 nm using a spectramax MAX 190 (Molecular devices) multi-well plate reading spectrophotometer.

[3] = system: rat primary astrocytes; test: Assay for NO production (nitrite, Griess reagent) in LPS/IFNγ-stimulated primary astrocytes; type: cell-based; conditions: for LPS/IFNγ-induced NO production: primary astrocytes, LPS/IFNγ (1 μg/ml; 10 U/ml), NO at 24 h
Method: as §1
Cells were cultured in 12-well plastic tissue culture plates. Following appropriate treatment, production of NO was determined by an assay of the culture supernatant for nitrite (Green et al., 1982). Briefly, 100 μl of culture supernatant was allowed to react with 100 μl of Griess reagent. The optical density of the assay samples was measured spectrophotometrically at 570 nm. Nitrite concentrations were calculated from a standard curve derived from the reaction of NaNO2 in fresh media.

[4] = system: iNOS; test: iNOS mRNA (RT-PCR) and protein (immunoblot) in LPS/IFNγ-stimulated primary astrocytes; type: cell-based, rat; conditions: for LPS/IFNγ-induced iNOS mRNA and protein levels: primary astrocytes, LPS/IFNγ (1 μg/ml; 10 U/ml), mRNA 6 h, protein 24 h
Method: as §1
(§2) For iNOS protein, the cells were washed with cold Tris buffered saline (TBS; 20 mM Trizma base, and 137 mM NaCl, pH 7.5), lysed in 1×SDS sample loading buffer (62.5 mM Trizma base, 2% w/v SDS, 10% glycerol), following sonication and centrifugation at 15,000×g for 5 min, the supernatant was used for the iNOS western immunoblot assay. The protein concentration of samples was determined with the detergent compatible protein assay reagent (Bio-Rad Laboratories, CA) using bovine serum albumin (BSA) as the standard. Sample was boiled for 3 min with 0.1 volumes of 10% β-mercaptoethanol and 0.5% bromophenol blue mix. Fifty μg of total cellular protein was resolved by electrophoresis on 8 or 12% polyacrylamide gels, electro-transferred to polyvinylidene difluoride (PVDF) filter and blocked with Tween 20 containing Tris-buffered saline (TBST; 10 mM Trizma base-pH 7.4, 1% Tween 20, and 150 mM NaCl) with 5% skim milk. After incubation with antiserum against iNOS (BD PharMingen, CA), rat GalT-2 (Abjent Inc., CA), H-Ras (Upstate Biotechnology, CA), GFAP (Santa Cruz Biotech, CA), or phospho-specific ERK1/2 (Cell signaling Tech Inc., MA), or pIκ-B (Signal Transduction), in PVDF buffer for 2 h at room temperature, the filters were washed 3 times with TBST buffer and then incubated with horseradish peroxidase conjugated anti-rabbit or mouse IgG for 1 h. The membranes were detected by autoradiography using ECL-plus (Amersham Pharmacia Biotech) after washing with TBST buffer.
5 μg total RNA was treated with 2 U DNAse I (bovine pancreas, Sigma) for 15 min at room temperature in 18 μl volume containing 1×PCR buffer and 2 mM MgCl2. It was then inactivated by incubation with 2 μl of 25 mM EDTA at 65° C. for 15 min. 2 μl of random primers were added and annealed to the RNA according to the manufacturer's protocol. cDNA was synthesized in a 50 μl reaction containing 5 μg of total RNA and 50-100 U reverse transcriptase by incubating the tubes at 42° C. for 60 min. PCR amplification was conducted in 25 μl of reaction mixture with 1.0 μl of cDNA, […] of each primer and under the manufacturer's Taq polymerase conditions (Takara, Takara Shuzo Co. Ltd, Japan). The sequence of primers used for PCR amplification are as follows; iNOS, (Forward-5′ […] 3′, SEQ ID NO:3; Reverse-5′ […] 3′, SEQ ID NO:4), GalT-2 (Forward-5′ tggtacaagctagaggc 3′, SEQ ID NO:5; Reverse-5′ gcatggcacattgaa C-3′, SEQ ID NO:6), GAPDH (Forward-5′ […] 3′, SEQ ID NO:7; Reverse-5′ cttcacgaagttgtcattgagggca3′, SEQ ID NO:8), TNFα (Forward-5′ […] g-3′, SEQ ID NO:9; Reverse-5′[…]-3′, SEQ ID NO:10) and IL-1β (Forward-5′[…]-3′, SEQ ID NO:11; reverse-5′[…]-3′, SEQ ID NO:12).

[5] = system: GFAP; test: GFAP mRNA (real time PCR) and protein (immunoblot) in TNFα-stimulated primary astrocytes; type: cell-based, rat; conditions: for TNFα-induced GFAP mRNA and protein expression: TNFα 1 ng/ml, mRNA 8 h, protein 18 h
Method: as §2

How did the “Phosphorylation of IκB” value ([1]; in the presence of PDMP) turn out when `CCCCCCCCCC(=O)NC(CN1CCOCC1)C(O)c1ccccc1.Cl` [PDMP, D-threo-1-Phenyl-2-decanoylamino-3-morpholino-1-propanol.HCl] was run?
Its value is “Decreased”.

And the TNFα-induced astrocyte proliferation ([2]; BrdU incorporation)?
Its TNFα-induced astrocyte proliferation is “dose dependently inhibited”.

And the “LPS/IFNγ-induced NO production” value [3]?
Its value is “dose dependent decrease”.

What about the “LPS/IFNγ-induced iNOS mRNA and protein levels” value [4] of the same molecule?
The value was “dose dependent decrease”.

What about the “TNFα-induced GFAP mRNA and protein expression” value [5] of the same molecule?
Its value is “inhibited”.

What does the source list for “AS GalT-2 oligonucleotides: 20-mer antisense oligonucleotide 5′-CGCTTGAGCGCAGACATCTT-3′, SEQ ID NO:1, against rat lactosylceramide synthase (GalT-2) (antisense CGCTTGAGCGCAGACATCTT; chemistry not given here)”?
TNFα-induced astrocyte proliferation ([2]; BrdU incorporation): decreased; LPS/IFNγ-induced NO production [3]: decreased; LPS/IFNγ-induced iNOS mRNA and protein levels [4]: decreased; TNFα-induced GFAP mRNA and protein expression [5]: diminished

How did the “Levels of phosphorylated IκB when LacCer was added to PDMP” value ([1]; PDMP plus LacCer) turn out when Lactosylceramide [LacCer] was run?
Its value is “increased”.

And the “Reversal of LY-mediated inhibition of TNFα-induced proliferation” value ([2]; LY 30 μM plus exogenous lipid)?
Its value is “effectively blunted”.

And the “Reversal of PDMP-mediated inhibition of TNFα-induced proliferation” value ([2]; PDMP 25 μM plus exogenous lipid)?
Its value is “able to bypass”.

What about the “Reversal of GalT-2 AS-mediated inhibition of TNFα-induced proliferation” value ([2]; exogenous LacCer) of the same molecule?
The value was “bypassed the inhibition”.

What about the “Reversal of DMS-mediated inhibition of TNFα-induced proliferation” value ([2]; exogenous lipid) of the same molecule?
Its value is “reversed”.

And the “Reversal of PD98059-mediated inhibition of TNFα-induced proliferation” value ([2]; exogenous lipid)?
Its value is “could not be reversed”.

And the “Proliferation of astrocytes induced by the substance itself” value ([2]; increasing doses (1, 5 and 10 μM for GSL), 18 h, BrdU incorporation)?
The value was “induced proliferation”.

What about the “Reversal of PDMP-mediated inhibition of LPS/IFNγ-induced NO production” value ([3]; PDMP 50 μM plus exogenous glycosphingolipid 5 and 10 μM, 0.5 h before LPS/IFNγ) of the same molecule?
The value was “blunted”.

What about the “Reversal of GalT-2 AS-mediated inhibition of NO production and iNOS levels” value ([3]; exogenous LacCer, LPS/IFNγ) of the same molecule?
The value was “reversed the inhibition”.

What about the “Reversal of NAC- and PDTC-mediated inhibition of LPS/IFNγ-stimulated iNOS gene expression” value ([4]; NAC 10 mM or PDTC 100 μM, exogenous LacCer) of the same molecule?
Its value is “not reversed”.

What about the “Reversal of PDMP-mediated inhibition of iNOS gene expression” value ([4]; PDMP 50 μM plus LacCer 5 and 10 μM, 0.5 h before LPS/IFNγ) of the same molecule?
Its value is “blunted”.

What about the “Effect on PD98059-mediated inhibition of iNOS gene expression” value ([4]; exogenous LacCer, LPS/IFNγ) of the same molecule?
The value was “no effect”.

What about the “Reversal of PDMP-mediated inhibition of TNFα-induced GFAP expression” value ([5]; PDMP 25 μM plus LacCer 5 μM) of the same molecule?
Its value is “reversed”.

And the “Reversal of AS-mediated inhibition of GFAP expression” value ([5]; exogenous LacCer)?
The value was “blunted”.

What about the “Reversal of LY-mediated inhibition of TNFα-mediated GFAP expression” value ([5]; exogenous LacCer) of the same molecule?
Its value is “effectively bypassed”.

And the “Effect on PD98059-mediated inhibition of GFAP expression” value ([5]; exogenous LacCer, TNFα)?
Its value is “no effect”.

And the “Reversal of DMS-mediated inhibition of TNFα-induced GFAP expression” value ([5]; exogenous lipid)?
The value was “reversed”.
